This note sets out measurements from patent US12187758B2 (ROME Therapeutics, Inc., priority 2022, dated 2025).

A word on the EC50: it is the concentration needed to bring the measured effect to its halfway point.

The subject of test [1] is THP1-Dual KO-TREX1 cells. Briefly: THP1 TREX1 KO inhibition assay, combination dosing. Type of test: cell-based. The conditions noted are these: for EC50: Homo sapiens, THP1-Dual, read-out: EC50 of Compound 2. The method, then:
Exemplary compounds were tested to determine the effect of combined dosing of two compounds on the type 1 interferon response in THP1 Dual TREX1 KO cells treated with 5-aza-2′-deoxycytidine. Assay procedures and results are described below.
THP1 Dual TREX1 KO cells were purchased from InvivoGen. The THP1-Dual™ KO-TREX1 cells were cultured in RPMI 1640, 10% heat-inactivated fetal bovine serum, 25 mM HEPES, 10 μg/mL blasticidin, and 100 μg/mL Zeocin. THP1-Dual™ KO-TREX1 cells were treated with a dose titration of test compound in the presence of 1 μM 5-aza-2′-deoxycytidine (Sigma, cat #189825). Type 1 Interferon and cell viability were assessed after five days of treatment.
Stock solution of test compounds stampidine and Compound 2 were prepared in DMSO followed by a three-fold dilution in DMSO. The plate was prepared with a matrix of test compound concentrations, with stampidine on the y-axis (final concentrations 3 μM to 0.0003 μM) and Compound 2 on the x-axis (final concentrations 0.3 μM to 0.00003 μM). Additional 50× dilution was prepared in cell culture media for each dilution. 10 μL of diluted test compound was then added to a 384-well plate.
THP1-Dual™ KO-TREX1 cells were treated with 1 μM 5-aza-2′-deoxycytidine. THP1-Dual™ KO-TREX1 cells (50 μL) were added to each well of the 384-well plate containing test compound titration at 10,000 cells/well. Cells were incubated at 37° C., 5% CO2 in a humidified incubator for five days. On day five, 20 μL of cell supernatant was transferred to a 384-well, white-walled plate, followed by addition to each well of 50 μL of QUANTI-LUC solution containing stabilizer. Luminescence was detected on a plate reader according to manufacturer's instructions. Percent inhibition of interferon was calculated using the following analysis: (Average DMSO-Sample)/(Average DMSO-Average 30 μM stampidine)*100.
The remaining cells were assessed for cell viability by adding 30 μl of CellTiter-Glo (Promega, G9683) solution to each well, and placed on a shaker for 10 minutes at room temperature. Luminescence was detected on a plate reader, according to manufacturer's instructions. Percent inhibition of cell viability using CellTiter-Glo was calculated using the following analysis: (Average DMSO−Sample)/(Average DMSO−Average 20 μM viability control reagent)*100.
Combination analysis was performed using the Bivariate Response to Additive Interacting Doses (BRAID) according to Twarog, N. R., et al. Scientific Reports 6:25523 (DOI: 10.1038/srep25523). The best BRAID fit was determined to be k 2.00 (0.583-3.64), where k>0 denotes synergy, k=0 denotes additivity, and k<0 denotes antagonism. Potentiation modeling curves are provided for potentiation of Compound 2 at four concentrations of stampidine (FIG. 7A) and for potentiation of stampidine at four concentrations of Compound 2 (FIG. 7B).

Test [2] deals with THP1-Dual KO-TREX1 xenograft tumors. Briefly: Altering IFN production in THP1-Dual KO-TREX1 mouse xenografts (Compound 67). Type of test: in vivo, CB-17 SCID female mice. The conditions noted are these: decitabine 5 mg/kg SC, compound 0.3-100 mg/kg PO once daily for 5 days; tumors 4 h post-last dose; FIG. 9. The method, then: Exemplary Compound 67 was tested for its ability to alter IFN levels in THP1-Dual™ KO-TREX1 xenografts in mice. Assay procedures are described below.
CB-17 SCID female mice were inoculated subcutaneously with 10 million THP1-Dual™ KO-TREX1 cells in 200 μl PBS with Matrigel (1:1) and grouped at N=5 per treatment per sampling timepoint when tumor volume reached an average of 340 mm^3. Six groups were co-administered: (1) decitabine (DAC) at 5 mg/kg SC, once daily, for 5 days, and (2) test compound 67 at one of six doses (0.3 mg/kg PO, 1 mg/kg PO, 3 mg/kg PO, 10 mg/kg PO, 30 mg/kg PO, 100 mg/kg PO) once daily, for 5 days. Two additional groups were administered (1) decitabine and test compound vehicle control SC+PO, once daily, for 5 days, and (2) decitabine at 5 mg/kg SC, once daily, for 5 days. […]
Tumors were harvested 4 h post-last dose administered on day 5, grinded in PBS at 50 Hz for 5 min, kept on ice for 30 min while being vortexed every 5 min. […] Equal amounts of proteins were added to 96-well black plates, and luciferase signal was measured using the QUANTI-Luc™ detection medium according to manufacturer's instructions. Luminescence was measured using the EnVision® 2105 Multimode Plate Reader.
Experimental results are depicted in FIG. 9. […] In FIG. 9, IFN signal was measured in tumors harvested from mice 4 hours after the final decitabine and test compound dosing on day 5.

Like-named read-outs stand apart in the source and are kept apart here.

Take `Nc1ccn([C@H]2C[C@H](O)[C@](CO)(CCl)O2)c(=O)n1` [Compound 2, 4-amino-1-((2R,4S,5R)-5-(chloromethyl)-4-hydroxy-5-(hydroxymethyl)tetrahydrofuran-2-yl)pyrimidin-2(1H)-one]: the EC50 in test [1] (Stampidine 0 μM) was 40 nM; in test [1] (Stampidine 0.001 μM), 33.5 nM; in test [1] (Stampidine 0.01 μM) it was 20.3 nM; in test [1] (Stampidine 0.1 μM) it was 0.15 nM. The “BRAID fit k (k>0 denotes synergy)” value in test [1] (combination of stampidine and Compound 2, 1 μM 5-aza-2′-deoxycytidine, five days) is 2.00 (0.583-3.64).
Take `Nc1nc(=O)n([C@@H]2O[C@@](CO)(CCl)[C@@H](O)[C@@H]2F)cc1F` [Compound 67, 4-amino-1-[(2R,3S,4R,5R)-5-(chloromethyl)-3-fluoro-4-hydroxy-5-(hydroxymethyl)oxolan-2-yl]-5-fluoropyrimidin-2-one]: in test [2], the “inhibition of DAC-induced IFN signal in THP1 tumors” value is given as “dose-response inhibition of DAC-induced IFN signal”.
